Data reported in PMC8348142, “Antimicrobial Peptide Modifications against Clinically Isolated Antibiotic-Resistant Salmonella” (Molecules, 2021).
≈ marks a conversion by molar mass, not a printed value. Marks after values point to notes of the source that are not given here. Square brackets hold non-standard residues; d marks the D form. Ends that are not written are not given here. Peptide text beside a SMILES is read from it.

Experiments:
Format in all cases: cell-based
[1] = tested on: clinical Salmonella isolates; experiment: MIC, broth microdilution; settings: for MIC: MHB, 5 × 10^5 CFU/mL, 37 °C, 18 h, duplicate
Procedure: (§1) All 12 isolates of Salmonella used in this study were clinical isolates and anonymous left-overs from laboratory diagnoses. They were maintained in a 20% glycerol (Sigma-Aldrich) stock at −80 °C and further cultured on Mueller-Hinton agar (MHA, Oxoid, Hampshire, UK) at 37 °C for 18 h to obtain single colonies for antimicrobial assays. This study was approved by the Ethics Committee of the Faculty of Tropical Medicine (Mahidol University, Bangkok, Thailand; MUTM-EXMPT 2017-007).
MIC was determined using the broth microdilution method described by Hancock with some modifications. Briefly, bacterial colonies grown from the MHA were prepared in MHB (Oxoid) as a 0.5 McFarland suspension (which is equal to 1 × 10^8 CFU/mL), and was further 200-fold diluted by the MHB (5 × 10^5 CFU/mL). The bacterial suspension (50 µL) was mixed with 2-fold serial dilutions of peptide (5.5 µL) achieving final concentrations of 256 to 1 µM using a round-bottom polypropylene (PP) 96-well plate (Greiner Bio-One). The plate was incubated at 37 °C for 18 h including incubating peptide free-bacteria as positive growth control, and MHB as negative growth control. After the incubation, the lowest concentration with no visible growth was defined as a MIC value. The assay was performed in a duplicate manner.

[2] = tested on: clinical Salmonella isolates; experiment: MBC, drop plate method, and MBC/MIC mode of action; settings: for GM of MBC: geometric mean over 12 clinical Salmonella isolates; for MBC: drop plate on MHA from MIC plate, 37 °C, 18 h, thrice
Procedure: as §1
The plate derived from the MIC assay was immediately tested for the MBC using a drop plate method. A volume of 10 µL of the culture from individual wells at MIC, 2MIC, and 4MIC was dropped on MHA plates. […] The experiment was thrice performed.
In order to determine whether the peptides have bacteriostatic or bactericidal activity, a ratio of MBC to MIC (MBC/MIC) was applied. The ratio >4 was indicative of bacteriostatic peptide, and ≤4 was inferred as bactericidal peptide.

sheep red blood cells = experiment: Hemolytic activity assay; settings: for HC50 (hemolytic concentration 50): concentration inducing 50% hemolysis of sRBCs, nonlinear regression, unit (µM); for percent hemolysis: 2% sRBCs in PBS, 37 °C, 1 h, OD540, triplicate mean; for concentration required for the initiation of hemolysis: sRBCs, 60 min, 256–1 µM tested
Procedure: The peptide toxicity to the mammalian system was screened based on the hemolytic test by measuring the hemoglobin released from ruptured red blood cells (RBCs). In this study, sheep RBCs (sRBCs) were employed. They were thrice washed and prepared as a suspension in phosphate-buffered saline (PBS, Oxoid). A suspension of 2% sRBCs was incubated with 2-fold serial dilutions of peptide (final concentrations; 256 to 1 µM in a total volume of 200 µL) at 37 °C for 1 h. The solutions of 0.1% (final concentration) Triton X-100 (Sigma-Aldrich) and PBS containing the peptide solvent were used instead of the peptides as the controls of hemolysis at 100% and 0%, respectively. Thereafter, the post-incubated suspensions were centrifuged (1000× g, 3 min) to pelletize residual sRBCs. The supernatants were then transferred into a flat-bottom PS 96-well plate and were measured the absorbance at 540 nm (OD540) by a microplate reader. The test was conducted in triplicate and the mean OD540 was used to calculate the hemolysis (%) as; ((OD540 (peptide) − OD540 (PBS + peptide solvent))/(OD540 (0.1% Triton X-100) − OD540 (PBS + peptide solvent))) × 100. The hemolytic concentration 50 (HC50), a concentration inducing 50% hemolysis, was determined.
The GraphPad Prism version 7.00 (GraphPad Software, La Jolla, CA, USA) was applied for all statistical analyses and data visualizations. Replicate quantitative results were calculated and shown as mean ± SD, unless otherwise specified. The HC50 values were determined using nonlinear regression analysis. The paired t-test and repeated measures one-way ANOVA with Tukey’s multiple comparison test were applied to compare between 2 groups and among 3 or more groups, respectively. The comparisons were considered as a statistically significant difference when a p-value < 0.05.

[3] = isolate 5 (Enteritidis, blood; resistant AMP, SXT, KZ)
[4] = isolate 7 (Typhimurium, blood; resistant AMP, CN, TE, NA, SXT)
[5] = isolate 55 (Typhimurium, blood; resistant AMP, SXT, C, TE)
[6] = isolate 61 (Enteritidis, blood; resistant AMP, TE, NA, SXT)
[7] = isolate 69 (Typhimurium, stool; resistant AMP)
[8] = isolate 76 (Enteritidis, CSF; resistant NA)
[9] = isolate 78 (Enteritidis, blood; resistant TE, CIP, NA, SXT)
[10] = isolate 107 (Typhimurium, stool; susceptible)
[11] = isolate 11 (I 1,4:i:-, blood; resistant AMP, TE, NA, SXT, C)
[12] = isolate 18 (Stanley, urine; resistant TE, SXT, C)
[13] = isolate 26 (Typhimurium, urine; resistant TZP, TE, NA)
[14] = isolate 27 (Typhimurium, stool; resistant AMP, TE, NA, SXT, CIP)

For “KLKLLLLLKLK-NH2 [KLK, reference compound]”, the MIC [1, 3] was over 256 µM, the MIC [1, 4] was over 256 µM and the MIC [1, 5] was over 256 µM. The MIC [1, 6] was over 256 µM, the MIC [1, 7] was over 256 µM and the MIC [1, 8] was over 256 µM. The MIC [1, 9] was over 256 µM and the MIC [1, 10] was over 256 µM.

Work on `CC[C@@H](C)[C@@H](NC(=O)[C@H](N)Cc1ccccc1)C(=O)N[C@H](CCCNC(=N)N)C(=O)N[C@H](CCCNC(=N)N)C(=O)N[C@@H](C(=O)N[C@H](C)C(=O)N[C@H](CCCNC(=N)N)C(=O)N[C@H](CC(C)C)C(=O)N[C@H](CC(C)C)C(=O)N[C@H](CCCNC(=N)N)C(=O)N[C@H](CCCNC(=N)N)C(=O)N[C@@H](C(=O)N[C@H](Cc1ccccc1)C(N)=O)[C@H](C)CC)[C@H](C)CC` [dKn2-5R-NH2] (H-[dF][dI][dR][dR][dI][dA][dR][dL][dL][dR][dR][dI][dF]-NH2) yielded an MIC [1, 3] of 8 µM (≈ 13.8 µg/mL), an MIC [1, 4] of 8 µM (≈ 13.8 µg/mL) and an MIC [1, 11] of 8 µM (≈ 13.8 µg/mL). For the same molecule, the MIC [1, 12] was 8 µM (≈ 13.8 µg/mL), the MIC [1, 13] was 8 µM (≈ 13.8 µg/mL) and the MIC [1, 14] was 4 µM (≈ 6.92 µg/mL). It also gave an MIC [1, 5] of 4 µM (≈ 6.92 µg/mL), an MIC [1, 6] of 4 µM (≈ 6.92 µg/mL) and an MIC [1, 7] of 4 µM (≈ 6.92 µg/mL). For the same molecule, the MIC [1, 8] was 8 µM (≈ 13.8 µg/mL), the MIC [1, 9] was 8 µM (≈ 13.8 µg/mL) and the MIC [1, 10] was 4 µM (≈ 6.92 µg/mL). The GM of MBC [2] was 5.99 µM, the MBC ([2]; isolate 5 (Enteritidis)) was 8 µM (≈ 13.8 µg/mL) and the MBC ([2]; isolate 7 (Typhimurium)) was 8 µM (≈ 13.8 µg/mL). It also gave an MBC ([2]; isolate 11 (I 1,4:i:-)) of 8 µM (≈ 13.8 µg/mL), an MBC ([2]; isolate 18 (Stanley)) of 8 µM (≈ 13.8 µg/mL) and an MBC ([2]; isolate 26 (Typhimurium)) of 8 µM (≈ 13.8 µg/mL). The MBC ([2]; isolate 27 (Typhimurium)) was 4 µM (≈ 6.92 µg/mL), the MBC ([2]; isolate 55 (Typhimurium)) was 4 µM (≈ 6.92 µg/mL) and the MBC ([2]; isolate 61 (Enteritidis)) was 4 µM (≈ 6.92 µg/mL). For the same molecule, the MBC ([2]; isolate 69 (Typhimurium)) was 4 µM (≈ 6.92 µg/mL), the MBC ([2]; isolate 76 (Enteritidis)) was 8 µM (≈ 13.8 µg/mL) and the MBC ([2]; isolate 78 (Enteritidis)) was 8 µM (≈ 13.8 µg/mL). The MBC ([2]; isolate 107 (Typhimurium)) was 4 µM (≈ 6.92 µg/mL), the “HC50 (hemolytic concentration 50)” value (sheep red blood cells) was 199.20 µM and the percent hemolysis (sheep red blood cells; peptide 1 µM) was 0%. For the same molecule, the percent hemolysis (sheep red blood cells; peptide 2 µM) was 0%, the percent hemolysis (sheep red blood cells; peptide 4 µM) was 0.4 * % and the percent hemolysis (sheep red blood cells; peptide 8 µM) was 0.5 * %. It also gave a percent hemolysis (sheep red blood cells; peptide 16 µM) of 0.9%, a percent hemolysis (sheep red blood cells; peptide 32 µM) of 2.5% and a percent hemolysis (sheep red blood cells; peptide 64 µM) of 8.7%. For the same molecule, the percent hemolysis (sheep red blood cells; peptide 128 µM) was 23.6%, the percent hemolysis (sheep red blood cells; peptide 256 µM) was 65.6% and the “concentration required for the initiation of hemolysis” value (sheep red blood cells) was 4 µM.

Work on FIRRIARLLRRIF [Kn2-5R] yielded an MIC [1, 3] of 8 µM, an MIC [1, 4] of 8 µM and an MIC [1, 11] of 8 µM. For the same molecule, the MIC [1, 12] was 8 µM, the MIC [1, 13] was 8 µM and the MIC [1, 14] was 8 µM. It also gave an MIC [1, 5] of 8 µM, an MIC [1, 6] of 8 µM and an MIC [1, 7] of 8 µM. It also gave an MIC [1, 8] of 8 µM, an MIC [1, 9] of 8 µM and an MIC [1, 10] of 8 µM. The GM of MBC [2] was 8 µM, the MBC ([2]; isolate 5 (Enteritidis)) was 8 µM and the MBC ([2]; isolate 7 (Typhimurium)) was 8 µM. For the same molecule, the MBC ([2]; isolate 11 (I 1,4:i:-)) was 8 µM, the MBC ([2]; isolate 18 (Stanley)) was 8 µM and the MBC ([2]; isolate 26 (Typhimurium)) was 8 µM. The MBC ([2]; isolate 27 (Typhimurium)) was 8 µM, the MBC ([2]; isolate 55 (Typhimurium)) was 8 µM and the MBC ([2]; isolate 61 (Enteritidis)) was 8 µM. It also gave an MBC ([2]; isolate 69 (Typhimurium)) of 8 µM, an MBC ([2]; isolate 76 (Enteritidis)) of 8 µM and an MBC ([2]; isolate 78 (Enteritidis)) of 8 µM. For the same molecule, the MBC ([2]; isolate 107 (Typhimurium)) was 8 µM, the “HC50 (hemolytic concentration 50)” value (sheep red blood cells) was 886.50 µM and the percent hemolysis (sheep red blood cells; peptide 1 µM) was 0%. For the same molecule, the percent hemolysis (sheep red blood cells; peptide 2 µM) was 0%, the percent hemolysis (sheep red blood cells; peptide 4 µM) was 0.4% and the percent hemolysis (sheep red blood cells; peptide 8 µM) was 0.7 * %. The percent hemolysis (sheep red blood cells; peptide 16 µM) was 1.4%, the percent hemolysis (sheep red blood cells; peptide 32 µM) was 1.5% and the percent hemolysis (sheep red blood cells; peptide 64 µM) was 1.8%. For the same molecule, the percent hemolysis (sheep red blood cells; peptide 128 µM) was 2.4%, the percent hemolysis (sheep red blood cells; peptide 256 µM) was 10.6% and the “concentration required for the initiation of hemolysis” value (sheep red blood cells) was 4 µM.

“FIGAIARLLSK [BmKn-22, reference compound]” showed an MIC [1, 3] of over 256 µM, an MIC [1, 4] of over 256 µM and an MIC [1, 5] of over 256 µM. For the same molecule, the MIC [1, 6] was over 256 µM, the MIC [1, 7] was over 256 µM and the MIC [1, 8] was over 256 µM. For the same molecule, the MIC [1, 9] was over 256 µM and the MIC [1, 10] was over 256 µM.

With “LLKLFFPFLETGE [Pug-1, reference compound]” the MIC [1, 3] was over 256 µM, the MIC [1, 4] was over 256 µM and the MIC [1, 5] was over 256 µM. It also gave an MIC [1, 6] of over 256 µM, an MIC [1, 7] of over 256 µM and an MIC [1, 8] of over 256 µM. The MIC [1, 9] was over 256 µM and the MIC [1, 10] was over 256 µM.

In the case of FPSFLVGR [Pug-4, reference compound], the MIC [1, 3] was over 256 µM, the MIC [1, 4] was over 256 µM and the MIC [1, 5] was over 256 µM. The MIC [1, 6] was over 256 µM, the MIC [1, 7] was over 256 µM and the MIC [1, 8] was over 256 µM. For the same molecule, the MIC [1, 9] was over 256 µM and the MIC [1, 10] was over 256 µM.

KLKLLLLLKL [KLK1, reference compound] showed an MIC [1, 3] of over 256 µM, an MIC [1, 4] of over 256 µM and an MIC [1, 5] of over 256 µM. It also gave an MIC [1, 6] of over 256 µM, an MIC [1, 7] of over 256 µM and an MIC [1, 8] of over 256 µM. For the same molecule, the MIC [1, 9] was over 256 µM and the MIC [1, 10] was over 256 µM.

“FIGAIARLLSKIF [BmKn-2, reference compound]” was tested, and the “MIC values, range over isolates” value ([1]; eight clinical Salmonella isolates, peptide 256–1 µM tested) was 64 to 256 µM, the MIC [1, 3] was 128 µM and the MIC [1, 4] was 128 µM. It also gave an MIC [1, 5] of 256 µM, an MIC [1, 6] of 256 µM and an MIC [1, 7] of 256 µM. For the same molecule, the MIC [1, 8] was 64 µM, the MIC [1, 9] was 128 µM and the MIC [1, 10] was 64 µM.
